Data: patent US9409896B2, “Sustained release pharmaceutical compositions comprising an antibacterial agent” (Melinta Therapeutics, Inc., priority 2010, dated 2016)
Converted amounts (≈) assume the structure as drawn. Where two headings read alike, the source gives them in different places.

What was measured:
log P of model compound = type: physicochemical
pKa of model compound = type: physicochemical
[1] = Polarized light microscopy of drug suspended in buffers with or without sodium chloride; type: physicochemical; settings: in the presence of chloride ion
Protocol: The common ion effect was studied using dissolution and microscopic methods. The microscopic method was conducted with drug suspended in water, pH 1.2, pH 4 and pH 6.5 buffers with and without sodium chloride. The dissolution of the drug and its granulations were studied using three different 2-step dissolution methods which entails the following: Method #1: simple 2-step buffers at pH 4 from 0-30 minutes and at pH 6.5 from 30-90 minutes. Method #2: simple 2-step buffers with the presence of chloride ion in both steps. Method #3: simple buffer at pH 4 with presence of chloride ion from 0-30 minutes; and buffer with bile salts and surfactants at pH 6.5 from 30-90 minutes. The two steps represent fed stomach and intestinal conditions, respectively.
Formulation Preparation Bulk drug powders were wet granulated with and without excipients. Granules were dried and sized through a #18 mesh screen. Polarized Microscopic Observation Microscopic test was conducted with drug suspended in water, pH 1.2, 4, and 6.5 buffers with and without sodium chloride. Dissolution Test: Four dissolution media were tested. Results of these tests are shown in line-graph formats in FIGS. 3-7. Bulk drug powders were wet granulated with and without excipients. […]
An in-vivo dog study was conducted with beagle dogs (wt=12 kg, n=3). […] Serial of plasma samples were collected, extracted, and analyzed by LC/MS/MS. […]

Food effect = settings: in vivo
Solubility = type: physicochemical
Caco-2 permeability = type: in vitro ADME; settings: human
[2] = Monkey oral bioavailability; settings: in vivo, at 20 mg/kg dose

- logP (log P of model compound): 0.7
- pKa (pKa of model compound): 6.8
- Positive food effect (Food effect): 4 ×
- solubility (Solubility; at pH 6.8, read-out: Intrinsic solubility): 10 µg/mL (≈ 22.8 µM)
- solubility (Solubility; water, pH 4, water, read-out: Solubility of salt in water): 2600 µg/mL
- solubility (Solubility; water, pH 5.4, water, read-out: Solubility of salt in water): 200 µg/mL
- solubility (Solubility; water, pH 6.5, water, read-out: Solubility of salt in water): 60 µg/mL
- Papp (Caco-2 permeability): 0.5 ×10⁻⁶ cm/s
- bioavailability [2]: 15%
Structure (SMILES): CC(=O)NC[C@H]1CN(c2ccc(-c3ccc(CNCc4cnn[nH]4)cc3)c(F)c2)C(=O)O1 [model compound, N-[3-(2-fluoro-4′-{[(3H-[1,2,3]triazol-4-ylmethyl)-amino]-methyl}-biphenyl-4-yl)-2-oxo-oxazolidin-5-(S)-ylmethyl]-acetamide]
- microscopic observation of aggregates [1]: formed aggregates in the presence of chloride ion
